Laboratory results reported in patent publication US20080015146A1, “Dpp-IV Inhibitors” (SANTHERA PHARMACEUTICALS (DEUTSCHLAND) AG, priority 2004, published 2008).

Target: T1, DPP-IV (Homo sapiens, UniProt P27487)
T1 construct: Soluble human DPP-IV lacking the transmembrane anchor (Gly31-Pro766); Pre-Pro-alpha-mating factor secretion leader (N, cleaved yes); made in house
Experiment: Continuous fluorimetric assay of inhibition of DPP-IV peptidase activity (cleavage of Gly-Pro-AMC)
Assay type: biochemical
Conditions: substrate Gly-Pro-AMC 16 μM, pH 7.4, 25° C., 1% DMSO; assays carried out with human and porcine DPP-IV (comparable activities)
Procedure: Inhibition of DPP-IV peptidase activity was monitored with a continuous fluorimetric assay. This assay is based on the cleavage of the substrate Gly-Pro-AMC (Bachem) by DPP-IV, releasing free AMC. The assay is carried out in 96-well microtiterplates. In a total volume of 100 μl compounds are preincubated with […] DPP-IV employing a buffer containing 10 mM Hepes, 150 mM NaCl, 0.005% Tween 20 (pH 7.4). […] The final concentration of DMSO is 1%. The inhibitory potential of the compounds were determined.
Soluble human DPP-IV lacking the transmembrane anchor (Gly31-Pro766) was expressed in a recombinant YEAST-strain as Pre-Pro-alpha-mating fusion. The secreted product (rhuDPP-IV-Gly31-Pro766) was purified from fermentation broth (>90% purity).

T1 sequence (P27487 31-766): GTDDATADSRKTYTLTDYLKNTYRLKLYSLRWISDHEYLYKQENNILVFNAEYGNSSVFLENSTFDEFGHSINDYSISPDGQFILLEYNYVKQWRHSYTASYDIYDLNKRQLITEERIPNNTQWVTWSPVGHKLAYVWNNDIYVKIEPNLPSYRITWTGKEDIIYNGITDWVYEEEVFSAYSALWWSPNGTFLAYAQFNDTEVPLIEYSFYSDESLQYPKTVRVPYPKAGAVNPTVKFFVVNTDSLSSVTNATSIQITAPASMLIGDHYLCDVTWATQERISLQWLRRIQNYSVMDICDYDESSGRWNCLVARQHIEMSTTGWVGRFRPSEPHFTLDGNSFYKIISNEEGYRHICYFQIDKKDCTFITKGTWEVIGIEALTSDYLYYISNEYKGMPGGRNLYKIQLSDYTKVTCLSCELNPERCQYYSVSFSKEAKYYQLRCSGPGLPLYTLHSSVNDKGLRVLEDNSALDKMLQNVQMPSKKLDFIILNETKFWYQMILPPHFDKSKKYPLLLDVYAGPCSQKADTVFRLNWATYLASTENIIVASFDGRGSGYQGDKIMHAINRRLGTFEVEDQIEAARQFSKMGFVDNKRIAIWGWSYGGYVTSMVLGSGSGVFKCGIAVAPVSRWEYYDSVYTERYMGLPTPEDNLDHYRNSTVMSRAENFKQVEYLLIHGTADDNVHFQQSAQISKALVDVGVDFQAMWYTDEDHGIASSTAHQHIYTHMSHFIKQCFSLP

| Structure (SMILES) | IC50 |
| --- | --- |
| N[C@@H](CC(=O)N1CC(n2cccn2)C1)Cc1ccccc1F [Example 52, (3R)-3-Amino-4-(2-fluoro-phenyl)-1-(3-pyrazol-1-yl-azetidin-1-yl)-butan-1-one] | 101 to 1000 nM |
| N[C@@H](CC(=O)N1CC(n2ccc(C(F)(F)F)n2)C1)Cc1cc(F)c(F)cc1F [Example 53, (3R)-3-Amino-1-[3-(3-trifluoromethyl-pyrazol-1-yl)-azetidin-1-yl]-4-(2,4,5-trifluorophenyl)-butan-1-one] | < 100 nM |
| N[C@@H](CC(=O)N1CC(n2nccc2C(F)(F)F)C1)Cc1cc(F)c(F)cc1F [Example 54, (3R)-3-amino-1-[3-(5-trifluoromethyl-pyrazol-1-yl)azetidin-1-yl]-4-(2,4,5-trifluoro-phenyl)-butan-1-one] | < 100 nM |
| N[C@@H](CC(=O)N1CC(n2ccc(C3CC3)n2)C1)Cc1cc(F)c(F)cc1F [Example 55, (R)-3-Amino-1-[3-(3-cyclopropyl-pyrazol-1-yl)-azetidin-1-yl]-4-(2,4,5-trifluoro-phenyl)butan-1-one] | < 100 nM |
| N[C@@H](CC(=O)N1CC(n2nccc2C2CC2)C1)Cc1cc(F)c(F)cc1F [Example 56, (R)-3-amino-1-[3-(5-cyclopropyl-pyrazol-1-yl)-azetidin-1-yl]-4-(2,4,5-trifluoro-phenyl)-butan-1-one] | < 100 nM |
